Where a SMILES comes first, the peptide text is derived from it. Primed or numbered codes have the meaning given here. Where no end group is shown, it is not given here. [ ]: non-standard residue; d: D form. The star is where a group is joined. FITC = O=C1OC2(c3ccc(O)cc3Oc3cc(O)ccc32)c2ccc(NC(=S)*)cc21; FITC′ = fluorescein isothiocyanate label; PEG = not defined here
Key:
subcutaneous tumors = assay: Tumor targeting of FITC-labeled collagen-binding construct after intravenous infusion; assay type: in vivo; conditions: intravenous infusion into the tail vein of nude mice; FIGS. 3C-3D
[1] = test system: subcutaneous human pancreatic cancer xenografts; conditions: paclitaxel without aptamer; cited from earlier work
[2] = test system: Locally Recurrent or Metastatic Breast Cancer; conditions: Phase III, once per week; cited from earlier work
[3] = test system: subcutaneous human pancreatic cancer xenografts
collagen agarose beads = assay: Collagen-agarose column chromatography of mAb-aptamers with fluorescent Rabbit-Anti-Human Abs; assay type: binding; conditions: FIG. 7B
[4] = Serum stability (resistance to proteolysis) of mAb-aptamers; assay type: in vitro ADME; conditions: FIG. 7C
Description: The serum stability (resistance to proteolysis) of mAb-Aptamer 1, mAb-Aptamer 2 and mAb-Aptamer 4 were further analyzed.

Collagen-Agarose beads [5] = assay: Collagen-agarose column chromatography of FITC-labeled collagen-binding constructs; conditions: increasing amounts applied to Collagen-Agarose beads, in vitro; FIG. 3B
Description: Three fluorescein isothiocyanate (FITC)-labeled collagen-binding constructs were generated and tested. Construct 1 (ac-L1/XC-BD1/L3/FITC) had the sequence of Ac-RRGVHVGWREPSFMALSMPHGGSGK-(FITC) (SEQ ID NO: 45); Construct 2(ac-L1/XC-BD2/L3/FITC) had the sequence of Ac-RRGVHVGWREPGRMELNMPHGGSGK-(FITC) (SEQ ID NO: 46); Construct 3 (ac-L2/XC-BD2/L3/FITC) had the sequence of Ac-RRGVRVAWREPGRMELNMPHGGSGK-(FITC) (SEQ ID NO: 47). […] Increasing amounts of these constructs were applied to the chromatography columns of Collagen-Agarose beads, followed by successive washes with (1) PBS, (2) PBS/PBS, Tween-20, BSA. The retention of the constructs to the column was documented by use of a blue-light transilluminator with an amber filter; quantitative data was obtained with a Quantus fluorometer.

[6] = Serum stability (resistance to proteolysis) of Tx-Apts; assay type: in vitro ADME; conditions: FIG. 4C
Collagen-Agarose beads [7] = assay: Collagen-agarose chromatography of RNA-Apts with Oregon Green 488 labeled oligonucleotides; assay type: binding; conditions: for retention of labeled oligonucleotides on collagen-agarose mini-columns: FIG. 10C; for depletion of fluorescently labeled oligonucleotides from the column eluates: increasing amounts of RNA-Apt, FIG. 10B
Method: Short oligonucleotides labeled with Oregon Green 488 were incubated with increasing amounts of RNA-Apt 07 or RNA-Apt 08 in PBS for 30 min at 30° C. and then applied to the chromatography column of collagen-agarose beads, followed by successive washes with (1) PBS, (2) PBS/PBS, Tween-20, BSA. The retention to the column was documented by use of a blue-light transilluminator with an amber filter; quantitative data was obtained with a Quantus fluorometer.

CSCC[C@H](NC(=O)[C@H](CCCNC(=N)N)NC(=O)CNC(=O)[C@@H]1CCCN1C(=O)[C@H](CCC(=O)O)NC(=O)[C@H](CCCNC(=N)N)NC(=O)[C@H](Cc1c[nH]c2ccccc12)NC(=O)CNC(=O)[C@@H](NC(=O)[C@H](Cc1c[nH]cn1)NC(=O)[C@@H](NC(=O)CNC(=O)[C@H](CCCNC(=N)N)NC(=O)[C@H](CCCNC(=N)N)NC(C)=O)C(C)C)C(C)C)C(=O)N[C@@H](CCC(=O)O)C(=O)N[C@@H](CC(C)C)C(=O)N[C@@H](CC(N)=O)C(=O)N[C@@H](CCSC)C(=O)N1CCC[C@H]1C(=O)N[C@@H](Cc1c[nH]cn1)C(=O)NCC(=O)NCC(=O)N[C@@H](CO)C(=O)NCC(=O)N[C@@H](CCCCNC(=S)Nc1ccc2c(c1)C(=O)OC21c2ccc(O)cc2Oc2cc(O)ccc21)C(=O)O [Construct 2, Ac-RRGVHVGWREPGRMELNMPHGGSGK-(FITC)] (Ac-RRGVHVGWREPGRMELNMPHGGSGK(FITC)-OH)
targeting to subcutaneous tumors (fluorescence) (subcutaneous tumors): efficiently targeted to subcutaneous tumors

CC(=O)O[C@H]1C(=O)[C@@]2(C)[C@H]([C@H](OC(=O)c3ccccc3)[C@]3(O)C[C@H](OC(=O)[C@H](O)[C@@H](NC(=O)c4ccccc4)c4ccccc4)C(C)=C1C3(C)C)[C@]1(OC(C)=O)CO[C@@H]1C[C@@H]2O [paclitaxel]
normal effective dose of paclitaxel in mice [1]: 10 mg/kg | clinical performance compared with Abraxane [2]: just as good or better than Abraxane | toxicity compared with Abraxane [2]: significantly less toxicity | active dose as fraction of the low metronomic doses commonly used ([3]; targeted paclitaxel treated mice): 1/10 | active dose as fraction of the normal effective dose of paclitaxel in mice ([3]; used with Taxol-aptamer): 1/50 | dose at which paclitaxel exhibited anti-angiogenic activity ([3]; used with Taxol-aptamer, FIG. 6C): 0.2 mg/kg

(PEG)-[C-A-R-R-G-V-H-V-G]-W-R-E-P-G-R-M-E-L-N-M-P-H-[G-G-S-G-G]-H-W-R-G-W-V-A-[G-G-S-G-G]-H-W-R-G-W-V-A-p-t ({PEG}-CARRGVHVGWREPGRMELNMPHGGSGGHWRGWVAGGSGGHWRGWVA[dP][dT]; reading uncertain; also: printed as (PEG)-[C-A-R-R-G-V-H-V-G]-W-R-E-P-G-R-M-E-L-N-M-P-H-[G-G-S-G-G]-H-W-R-G-W-V-A-[G-G-S-G-G]-H-W-R-G-W-V-A-p-t) [mAb-Aptamer 4]
binding of antibodies to the collagen beads (collagen agarose beads): higher binding | serum stability (resistance to proteolysis) [4]: greatest serum stability

Ac-RRGVHVGWREPSFMALSMPHGGSGK-(FITC) (Ac-RRGVHVGWREPSFMALSMPHGGSGK(FITC′)) [Construct 1]
binding to collagen (retention of the constructs to the column) (Collagen-Agarose beads [5]): bound to collagen in a dose dependent manner

Ac-[dR][dR]GVHVGWREPGRMELNMPHGGSGRGVGIMKACGRTRHTVR[dM]G (N-terminus assumed) [Tx-Apt2, Ac-[r-r-G-V-H-V-G]-W-R-E-P-G-R-M-E-L-N-M-P-H-[G-G-S-G]-R-G-V-G-I-M-K-A-C-G-R-T-R-H-T-V-R-m-G]
serum stability (resistance to proteolysis) over time [6]: most stable

RRGVHVGWREPSFMALSMPHGGRRRRRRRRR [RNA-Apt 08]
retention of labeled oligonucleotides on collagen-agarose mini-columns (Collagen-Agarose beads [7]): retaining the labeled oligonucleotides on the collagen-agarose mini-columns | depletion of fluorescently labeled oligonucleotides from the column eluates (Collagen-Agarose beads [7]): depleted fluorescently labeled-oligonucleotides from the eluates

RRRRRRRRRRRGVHVGWREPSFMALSMPHGG [RNA-Apt 07]
retention of labeled oligonucleotides on collagen-agarose mini-columns (Collagen-Agarose beads [7]): retaining the labeled oligonucleotides on the collagen-agarose mini-columns | depletion of fluorescently labeled oligonucleotides from the column eluates (Collagen-Agarose beads [7]): depleted fluorescently labeled-oligonucleotides from the eluates

r-r-GVHVGWREPGRMELNMPHGGSGGHWRGWVAGGSGGHWRGWV-a-a ([dR][dR]GVHVGWREPGRMELNMPHGGSGGHWRGWVAGGSGGHWRGWV[dA][dA]) [mAb-Aptamer 2]
binding of antibodies to the collagen beads (collagen agarose beads): higher binding
